In assay [1] the test system is DU145 prostate tumor cells. In words: Boyden-chamber cell migration assay, DU145. The class given is cell-based. The note with it: Homo sapiens, DU-145. How it is done:
(§1) Since fascin is critical for tumor cell migration, inhibitors of fascin should block tumor cell migration. Representative compounds were selected from the above-identified fascin inhibitors to test their abilities on inhibition of tumor cell migration (See Table 2). […] Therefore, tumor cells with fascin expression are likely sensitive to these fascin inhibitors. The cell lines used are listed below.
(§2) Exemplifying procedure: MDA-MB-231 cells (5×10^4) or 4T1 Cells (1×10^5) suspended in 100 μL starvation medium were added to the upper chamber of an insert (6.5 mm diameter, 8 μm pore size; Becton Dickson), and the insert was placed in a 24-well plate containing 700 μL starvation medium with or without 10% FBS. When used, inhibitors were added to the lower chamber. Migration assays were performed for 6 h and cells were fixed with 3.7% formaldehyde. Cells were stained with crystal violet staining solution, and cells on the upper side of the insert were removed with a cotton swab. Three randomly selected fields (×10 objectives) on the lower side of the insert were photographed, and the migrated cells were counted. Migration was expressed as average number of migrated cells in a field.

Assay [2] concerns the target fascin (Homo sapiens (Human), UniProt Q16658). In words: High throughput fascin inhibition assay (actin bundling, F-actin imaging). The class given is biochemical. How it is done:
A high throughput assay was developed to screen for fascin specific inhibitors. Purified polymerized F-actin with or without fascin were mixed and incubated to allow actin bundle formation. F-actin polymers were then bound to the poly-D-lysine coated plates. […] Four images were taken from each well and the average fiber length was analyzed for each tested compound.
Recombinant human fascin 1 was expressed as a GST fusion protein in BL21 Escherichia coli. One liter of 2YT medium with ampicillin was inoculated overnight with 3 mL of BL21/DE3 culture transformed with pGEX4T-fascin 1 plasmid and grown at 37° C. until attenuance at 600 nm (D600) reached about 0.8. The culture was then transferred to 18° C. and induced by the addition of 0.1 mM isopropyl β-d-thiogalactoside (IPTG) for 12 h. Bacteria were harvested by centrifugation at 5,000 r.p.m. for 10 min. The pellets were suspended in 30 mL of PBS supplemented with 0.2 mM PMSF, 1 mM DTT, 1% (v/v) Triton X-100 and 1 mM EDTA. After sonication, the suspension was centrifuged at 15,000 r.p.m. for 30 min to remove the cell debris. The supernatant was then incubated for 2 h with 4 mL of glutathione beads (Sigma) at 4° C. After extensive washing with PBS, the beads were resuspended in 10 mL of thrombin cleavage buffer (20 mM Tris-HCl pH 8.0, 150 mM NaCl, 2 mM CaCl2, 1 mM DTT). Fascin was released from the beads by incubation overnight with 40-100 U of thrombin at 4° C. After centrifugation, 0.2 mM PMSF was added to the supernatant to inactivate the remnant thrombin activity. The fascin protein was further concentrated with a Centricon® (Boca Raton, Fla.) filter to about 50 mg/mL.
About 150,000 compounds were screened. […] Purified fascin protein (15 μL of 0.5 μM) in buffer (100 mM KCl, 20 mM Tris/HCl, pH 7.5, 2 mM MgCl2) was added into each well of a clear 384-well flat-bottom plate (Corning) using Thermo Multidrop Combi (Fisher). Compound ([…]) solutions (5 mM stock) from various chemical libraries were pin transferred from stock 384-well plates into the 384-well assay plates and incubated for 30 min. Then 15 μL of 0.5 μM polymerized actin (in 100 mM KCl, 20 mM Tris/HCl, pH 7.5, 2 mM MgCl2, 1 mM DTT, 1 mM ATP) (Cytoskeleton Inc.) was added, resulting in 30 μM final concentration for chemical compounds. […] Mixed solution (25 μL) was then transferred to one well in a black 384-well plate coated with poly-D-lysine, and stained actin bundles or F-actin would stick onto the poly-D-lysine plates. After the plates were thoroughly washed with 1×PBS for 3 times, the plate was imaged using an ImageXpress Micro High Content Screening System (Molecular devices). The images were processed and analyzed using MetaMorph software. The raw image data for each well was background-corrected by subtraction of the median intensities across all wells on the plate. The background-corrected data was used to compute the bundle length for each well. The negative control wells were employed for quality control: multiple DMSO-only control wells (16 wells/plate) were present on each assay plate.

Assay [3] concerns LLC lung tumor cells. In words: Boyden-chamber cell migration assay, LLC. It is filed as cell-based. The protocol:
as §1, §2

Assay [4] has as its system PC-3 prostate tumor cells. In words: Boyden-chamber cell migration assay, PC-3. It is filed as cell-based. The protocol: as §1, §2
Assay [5] relates to 4T1 breast tumor cells. In words: Boyden-chamber cell migration assay, 4T1. The class given is cell-based. The protocol:
(§3) Since fascin is critical for tumor cell migration, inhibitors of fascin should block tumor cell migration. Representative compounds were selected from the above-identified fascin inhibitors to test their abilities on inhibition of tumor cell migration (See Table 2). […] The cell lines used are listed below.
as §2, with “When used, inhibitors were added to the lower chamber.” left out

Assay [6] relates to 4T1 breast tumor cells. In words: Tumor metastasis in mouse models (lung metastasis, 6-thioguanine clonogenic assay). Conditions: 4T1 cells in mammary fat-pad, n=5, P<0.01. The class given is in vivo, Balb/c mice. The protocol:
Lung metastasis was measured by the 6-thioguanine clonogenic assay. […] Results are mean±SD (n=5). *, P<0.01.
Tumor cell migration is essential for tumor metastasis. […] Tumor cells (4T1 breast tumor cells) were injected into the mammary fat-pad of mice. The metastasis of these breast tumor cells from the mammary gland to the lung was monitored by the clonogenic assay.
Balb/c mice were purchased from Charles River. All animal procedures were approved by the Animal Care and Use Committees of the Weill Cornell Medical College and performed in accordance with institutional polices. For xenograft tumor metastasis studies, 5×10^5 4T1 cells were suspended in 100 μL PBS and injected subcutaneously into the mammary glands of 6-8 week old female Balb/c mice. Tumor incidence was monitored for 21 days after injection. Tumor size was measured three times a week, and the volume was calculated using the formula length×width^2×0.5. Compound treatment was initiated 7 days after tumor implantation; animals were administered daily with indicated dose for 2 weeks. On day 28, the mice were sacrificed. Numbers of metastatic 4T1 cells in lungs were determined by the clonogenic assay. […] Data are expressed as mean±S.D. and analyzed by Student's t test with significance defined as p<0.05.

The subject of assay [7] is MDA-MB-231 breast tumor cells. In words: Boyden-chamber cell migration assay, MDA-MB-231. The class given is cell-based. Conditions: Homo sapiens. The protocol: as §3
as §2, with “When used, inhibitors were added to the lower chamber.” left out

Setting [8] is: Actin + Fascin + compound at 30 μM.

`O=[N+]([O-])c1ccc(Cl)c(S(=O)(=O)Nc2nc3ccc(Cl)cc3s2)c1` [Compound 3, 2-chloro-N-(6-chlorobenzo[d]thiazol-2-yl)-5-nitrobenzenesulfonamide]: the IC50 in assay [1] is 25 µM; in assay [2], 0.652 µM; in assay [3], 25 µM; in assay [4], 25 µM; in assay [5], 20 µM; in assay [7] it was 25 µM. Besides, the fiber growth entry in assay [2] (30 μM) is listed as “inhibited fiber growth”. For the same molecule, the Average fiber length in assay [2] (setting [8]) came out at 0.39 arbitrary unit. Moreover, the Average fiber thickness in assay [2] (setting [8]) is reported as 0.35 arbitrary unit. For the same molecule, the “tumor metastasis from mammary gland to lung” value in assay [6] (8 mg/kg daily for 2 weeks) is listed as “decreased the tumor metastasis”.
On to `C/N=c1/nc(-c2ccccc2)n(-c2ccccc2)s1` [Compound 4, (Z)-N-(2,3-diphenyl-1,2,4-thiadiazol-5(2H)-ylidene)methanamine], for which the values for the IC50 in assay [2], in assay [5] and in assay [7] were 0.5 µM, 50 µM and 30 µM, respectively.
In assay [2], `COc1ccc(S(=O)(=O)Nc2cc(Sc3nc[nH]n3)c(O)c3ccccc23)cc1` [Compound 10, N-(3-(1H-1,2,4-triazol-3-ylthio)-4-hydroxynaphthalen-1-yl)-4-methoxybenzenesulfonamide] displayed an IC50 of 0.807 µM. Further, the “tumor metastasis from mammary gland to lung” value in assay [6] (30 mg/kg daily for 2 weeks) was “decreased the tumor metastasis”.
`O=C(/C=C/c1ccccc1)Nc1nc2ccccc2s1` [Compound 20, N-(benzo[d]thiazol-2-yl)cinnamamide]: the concentration for half-maximal inhibition (IC50) is about 4 µM in assay [2] and about 60 µM in assay [5].

The values above are taken from patent US10208043B2, “Methods for inhibiting fascin” (Novita Pharmaceuticals, Inc., priority 2012, dated 2019).
